# Results as given in ChEMBL document CHEMBL1201862, “PubChem BioAssay data set” (2004).
# Activity calls are given as the source filed them.
# Columns and labels:
# [1] = biological target: Sphingosine 1-phosphate receptor 1 (Homo sapiens, UniProt P21453); assay: Fluorescence-based counterscreen assay for S1P4 agonists: Cell-based dose response high throughput screening assay to identify agonists of the Sphingosine 1-Phosphate Receptor 1 (S1P1). [Related pubchem assays (depositor defined):AID1509, AID1523, AID1801, AID463107, AID463118, AID463119, AID463122, AID463123, AID463129, AID463225, AID504400, AID504460]; assay type: functional
# [2] = biological target: T1, Zinc finger protein mex-5 (Caenorhabditis elegans, UniProt Q9XUB2); assay: potency of MEX-5 RNA-binding blockers – biochemical, C. elegans, fluorescence polarization, dose response (AID 1960)
# T1 sequence (Q9XUB2 whole entry): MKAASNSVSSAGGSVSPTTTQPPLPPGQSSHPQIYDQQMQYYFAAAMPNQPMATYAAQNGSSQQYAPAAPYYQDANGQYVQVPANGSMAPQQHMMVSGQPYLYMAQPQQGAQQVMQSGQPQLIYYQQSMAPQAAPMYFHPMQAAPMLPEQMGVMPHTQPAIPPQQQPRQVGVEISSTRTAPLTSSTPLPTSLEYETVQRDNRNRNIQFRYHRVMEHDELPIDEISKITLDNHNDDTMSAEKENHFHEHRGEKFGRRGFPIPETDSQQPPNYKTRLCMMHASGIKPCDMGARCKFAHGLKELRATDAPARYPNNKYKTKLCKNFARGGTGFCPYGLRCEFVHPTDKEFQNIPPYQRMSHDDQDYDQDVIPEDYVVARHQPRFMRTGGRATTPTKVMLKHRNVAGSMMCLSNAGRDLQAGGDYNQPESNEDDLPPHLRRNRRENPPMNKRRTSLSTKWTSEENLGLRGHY
# [3] = biological target: T2, Sphingosine 1-phosphate receptor 4 (Homo sapiens, UniProt O95977); assay: Fluorescence dose response cell-based high throughput screening assay for agonists of the Sphingosine 1-Phosphate Receptor 4 (S1P4). [Related pubchem assays: 1509 (Primary screen.), 1523 (Confirmation screen in triplicates.)]; assay type: functional
# T2 sequence (O95977 whole entry): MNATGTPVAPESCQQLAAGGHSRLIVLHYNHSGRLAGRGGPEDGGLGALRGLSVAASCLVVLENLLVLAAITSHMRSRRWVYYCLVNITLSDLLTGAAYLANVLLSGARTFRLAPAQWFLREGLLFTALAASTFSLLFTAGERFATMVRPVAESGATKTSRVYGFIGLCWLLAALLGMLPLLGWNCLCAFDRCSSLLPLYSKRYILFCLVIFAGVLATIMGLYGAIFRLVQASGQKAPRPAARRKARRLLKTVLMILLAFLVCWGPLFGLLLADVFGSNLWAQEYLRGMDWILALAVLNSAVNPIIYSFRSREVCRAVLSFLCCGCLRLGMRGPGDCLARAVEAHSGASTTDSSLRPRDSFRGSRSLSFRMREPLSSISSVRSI
# [4] = biological target: T3, RNA-binding protein pos-1 (Caenorhabditis elegans, UniProt G5EF15); assay: disruptors of C. elegans POS-1 RNA interaction – biochemical, fluorescence polarization, dose response (AID 1964);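 further: purified POS-1 fused to maltose binding protein made in E. coli; potency of compounds blocking POS-1 binding to fluorescent RNA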
# T3 sequence (G5EF15 whole entry): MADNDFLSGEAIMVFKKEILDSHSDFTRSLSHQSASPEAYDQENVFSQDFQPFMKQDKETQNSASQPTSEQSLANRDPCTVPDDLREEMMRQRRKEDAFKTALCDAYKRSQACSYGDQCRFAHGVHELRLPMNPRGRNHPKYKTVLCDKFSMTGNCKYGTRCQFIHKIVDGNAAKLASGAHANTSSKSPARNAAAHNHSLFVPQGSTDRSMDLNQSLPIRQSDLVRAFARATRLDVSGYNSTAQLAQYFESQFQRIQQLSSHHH
# [5] = biological target: T4, Replicative DNA helicase DnaB (Mycobacterium tuberculosis, UniProt P9WMR3); assay: DnaB intein splicing inhibitors, dose response, biochemical, cell-free fluorescence (AID 449749); assay type: functional
# T4 sequence (P9WMR3 whole entry): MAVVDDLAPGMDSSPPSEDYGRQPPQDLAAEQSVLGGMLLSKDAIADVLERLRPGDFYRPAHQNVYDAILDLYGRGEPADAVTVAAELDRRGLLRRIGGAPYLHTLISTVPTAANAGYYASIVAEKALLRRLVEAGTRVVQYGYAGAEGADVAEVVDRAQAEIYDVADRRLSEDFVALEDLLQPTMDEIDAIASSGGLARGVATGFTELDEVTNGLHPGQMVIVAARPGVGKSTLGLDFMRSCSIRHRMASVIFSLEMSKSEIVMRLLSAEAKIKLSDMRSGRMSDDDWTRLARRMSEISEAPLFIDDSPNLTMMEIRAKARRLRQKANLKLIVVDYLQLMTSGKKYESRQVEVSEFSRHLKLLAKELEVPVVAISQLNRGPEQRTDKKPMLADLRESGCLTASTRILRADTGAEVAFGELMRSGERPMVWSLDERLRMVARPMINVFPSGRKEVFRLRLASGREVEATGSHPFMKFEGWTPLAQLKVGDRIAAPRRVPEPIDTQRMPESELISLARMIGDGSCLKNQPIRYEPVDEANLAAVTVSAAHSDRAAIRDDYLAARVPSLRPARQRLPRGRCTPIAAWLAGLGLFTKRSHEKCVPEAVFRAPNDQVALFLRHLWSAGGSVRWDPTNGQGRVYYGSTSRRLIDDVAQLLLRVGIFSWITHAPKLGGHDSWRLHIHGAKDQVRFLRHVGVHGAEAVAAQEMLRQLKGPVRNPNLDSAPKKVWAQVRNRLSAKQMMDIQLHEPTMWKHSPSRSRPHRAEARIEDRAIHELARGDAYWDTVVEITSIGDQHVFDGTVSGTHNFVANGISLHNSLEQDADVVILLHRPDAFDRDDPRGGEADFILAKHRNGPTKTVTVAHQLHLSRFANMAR
# [6] = biological target: Protein-arginine deiminase type-4 (Homo sapiens, UniProt Q9UM07); assay: IC50 against protein arginine deiminase 4 – biochemical, fluorescence readout, dose response (AID 492970)
# Protein RecA = biological target: T5, Protein RecA (Mycobacterium tuberculosis, UniProt P9WHJ3); assay: Fluorescence Cell-Free Homogeneous Dose Retest to Identify Inhibitors of RecA-Intein Splicing Activity. [Related pubchem assays (depositor defined):AID2097, AID2223, AID489010, AID492950]; assay type: functional
# T5 sequence (P9WHJ3 whole entry): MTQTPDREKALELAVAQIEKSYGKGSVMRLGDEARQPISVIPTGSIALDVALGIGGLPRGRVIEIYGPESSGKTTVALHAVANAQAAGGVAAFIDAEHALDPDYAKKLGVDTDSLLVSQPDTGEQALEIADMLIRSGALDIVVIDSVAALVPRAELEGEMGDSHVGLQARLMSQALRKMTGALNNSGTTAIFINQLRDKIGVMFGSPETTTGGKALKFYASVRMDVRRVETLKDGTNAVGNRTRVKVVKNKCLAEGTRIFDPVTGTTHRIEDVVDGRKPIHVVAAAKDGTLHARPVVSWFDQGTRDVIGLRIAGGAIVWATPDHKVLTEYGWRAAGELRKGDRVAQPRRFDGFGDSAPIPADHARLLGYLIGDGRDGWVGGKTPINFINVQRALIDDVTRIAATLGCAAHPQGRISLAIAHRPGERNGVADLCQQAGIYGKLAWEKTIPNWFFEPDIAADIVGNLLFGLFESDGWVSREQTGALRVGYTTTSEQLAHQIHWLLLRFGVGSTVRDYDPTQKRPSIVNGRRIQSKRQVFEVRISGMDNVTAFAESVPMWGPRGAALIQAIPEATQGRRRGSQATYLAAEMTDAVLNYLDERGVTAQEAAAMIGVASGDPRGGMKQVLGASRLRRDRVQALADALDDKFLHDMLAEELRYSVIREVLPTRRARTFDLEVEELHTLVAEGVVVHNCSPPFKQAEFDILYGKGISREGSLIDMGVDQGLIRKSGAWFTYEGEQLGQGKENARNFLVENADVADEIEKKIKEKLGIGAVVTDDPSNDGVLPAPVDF
# Troponin, cardiac muscle = Troponin, cardiac muscle (Homo sapiens, UniProt P19429+P45379+P63316); assay: Fluorescence-based biochemical high throughput dose response assay for activators of the calcium sensitivity of cardiac Regulated Thin Filaments (RTF). [Related pubchem assays (depositor defined):AID493008, AID493018, AID504382, AID504383]; assay type: protein-complex assay
# [7] = biological target: Peroxisome proliferator-activated receptor gamma/Nuclear receptor coactivator 2 (Homo sapiens, UniProt P37231); assay: (§1) TR-FRET dose response biochemical High Throughput Screening assay for agonists of the steroid receptor coactivator 2 (SRC-2) recruitment by the peroxisome proliferator-activated receptor gamma (PPAR gamma): non-selective agonists. [Related pubchem assays: 1297, 1032 ]; assay type: functional
# [8] = biological target: Peroxisome proliferator-activated receptor gamma/Nuclear receptor coactivator 1 (Homo sapiens, UniProt P37231); assay: as §1, with “1 (SRC-1)” for “2 (SRC-2)”, “assays (depositor defined):AID1300, AID1808, AID504735, AID631]” for “assays: 1297, 1032 ]”; assay type: protein assay
# [9] = biological target: Peroxisome proliferator-activated receptor gamma/Nuclear receptor coactivator 3 (Homo sapiens, UniProt P37231); assay: as §1, with “3 (SRC-3)” for “2 (SRC-2)”, “1301 (Confirmation screen.), 1048 (Primary screen.)]” for “1297, 1032 ]”; assay type: functional
# [10] = biological target: T6, Tyrosine-protein phosphatase non-receptor type 22 (Homo sapiens, UniProt Q9Y2R2); assay type: functional
# [11] = biological target: Tyrosine-protein phosphatase non-receptor type 7 (Homo sapiens, UniProt P35236); assay type: functional
# [12] = biological target: T6, Tyrosine-protein phosphatase non-receptor type 22; assay type: functional; remark: listed apart in the source
# [13] = biological target: T7, High affinity choline transporter 1 (Homo sapiens, UniProt Q9GZV3); assay: human choline transporter blockers, potency – cell-based, 5-point CRC, membrane potential dye, dose response (AID 504840); assay type: functional
# T7 sequence (Q9GZV3 whole entry): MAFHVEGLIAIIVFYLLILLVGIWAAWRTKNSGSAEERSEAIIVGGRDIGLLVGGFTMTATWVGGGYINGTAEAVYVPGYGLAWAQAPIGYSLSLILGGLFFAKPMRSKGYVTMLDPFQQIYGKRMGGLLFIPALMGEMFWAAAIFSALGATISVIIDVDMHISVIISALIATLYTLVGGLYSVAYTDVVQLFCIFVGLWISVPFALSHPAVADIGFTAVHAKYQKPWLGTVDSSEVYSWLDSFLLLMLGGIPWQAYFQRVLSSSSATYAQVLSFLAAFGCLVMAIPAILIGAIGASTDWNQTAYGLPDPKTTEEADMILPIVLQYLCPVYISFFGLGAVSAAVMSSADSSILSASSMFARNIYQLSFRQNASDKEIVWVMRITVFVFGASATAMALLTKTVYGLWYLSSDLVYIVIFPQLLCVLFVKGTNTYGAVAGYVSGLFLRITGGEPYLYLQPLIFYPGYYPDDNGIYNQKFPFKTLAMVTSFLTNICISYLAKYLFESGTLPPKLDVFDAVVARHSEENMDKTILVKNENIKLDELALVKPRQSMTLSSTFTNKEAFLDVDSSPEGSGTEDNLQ
smiles,measurement,setting,value
CCOC(=O)c1c(-n2c(C)cc(C=C3C(=O)NC(=O)NC3=O)c2C)sc2c1CCCC2,EC50,[1],> 49.8 µM (inactive)
same,EC50,[2],> 300 µM (inconclusive)
same,EC50,[3],> 16.6 µM (not active)
same,EC50,[4],> 300 µM (inconclusive)
COC(=O)c1nc(O)c2ccccc2c1O,AC50,[5],5.62 µM (active)
same,IC50,[6],42 µM (inactive)
same,EC50,Protein RecA,3.57 µM (active)
CNC(=S)N1N=C(c2ccc(Br)cc2)CC1c1ccc(N(C)C)cc1 (stereo not given),EC50,"Troponin, cardiac muscle",40 µM (inactive)
same,EC50,[7],14 µM (not active)
same,EC50,[8],11.6 µM (inactive)
same,EC50,[9],> 79.4 µM (not active)
Cc1occc1C(=O)NNS(=O)(=O)c1ccc(Cl)cc1,IC50,[10],> 79.4 µM (inactive)
same,IC50,[11],> 79.4 µM (inactive)
same,IC50,[12],> 79.4 µM (inactive)
same,IC50,[13],13.5 µM (active)
